Read-outs that look alike come from different tables or passages of the source.
Tested on: hind paws of male rats
Assay: Anti-inflammatory effect: acute carragheenin edema method
Format: in vivo
Details: Rattus norvegicus, read-out: Anti-inf.: edema inhibition rate
Experimental: The edema was induced by subcutaneous injection of 1% carragheenin suspension in saline to the hind paws of male rats weighting 150 to 180 g. Each sample was orally given at the dosage of 100 mg/kg just before the inoculation of carragheenin.

[1] = 100 mg/kg oral, carragheenin edema, male rats (Table 2')

Structure (SMILES) | inhibition in vivo at 100 mg/kg [1] [%] | inhibition in vivo at 100 mg/kg (po) [%]
CCCCCc1ccc(C(=O)c2ccccc2Cl)cc1 [compound 133] | 38.3 | –
CCCCCCCCc1ccc(C(=O)c2ccccc2Cl)cc1 [compound 134] | 35.1 | –
Cc1ccc(C(=O)c2ccccc2Cl)c(C)c1 [compound 135] | 37.2 | –
COc1ccc(C(=O)c2ccc(Cl)cc2)cc1 [compound 136] | 13.2 | –
CCCCOc1ccc(C(=O)c2ccc(Cl)cc2)cc1 [compound 137] | 16.7 | –
CCCCCCOc1ccc(C(=O)c2ccc(Cl)cc2)cc1 [compound 138] | 12.5 | –
CCCc1ccc(C(=O)c2cccc(Cl)c2)cc1 [compound 139] | 11.7 | –
CCCCCc1ccc(C(=O)c2cccc(Cl)c2)cc1 [compound 140] | 14.9 | –
CCCCCCCCc1ccc(C(=O)c2cccc(Cl)c2)cc1 [compound 141] | 13.8 | –
CCCc1ccc(C(=O)c2ccccc2Br)cc1 [compound 142] | 38.9 | –
CCCCc1ccc(C(=O)c2ccccc2Br)cc1 [compound 143] | 45.4 | –
CCCCCc1ccc(C(=O)c2ccccc2Br)cc1 [compound 144] | 50 | –
CCCCCCCCc1ccc(C(=O)c2ccccc2Br)cc1 [compound 145] | 60.2 | –
Cc1ccc(C(=O)c2ccccc2Br)c(C)c1 [compound 146] | 23.1 | –
Cc1cc(C)c(C(=O)c2ccccc2Br)c(C)c1 [compound 147] | 20.4 | –
CCCCCCCCc1ccc(C(=O)c2cccc(Br)c2)cc1 [compound 148] | 36.3 | –
Cc1ccc(C(=O)c2cccc(Br)c2)c(C)c1 [compound 149] | 42.2 | –

Structure (SMILES) | inhibition in vivo at 100 mg/kg [1] [%] | inhibition in vivo at 100 mg/kg (po) [%]
CCCc1ccc(C(=O)c2ccc(Br)cc2)cc1 [compound 150] | 14 | –
CCCCCCCCc1ccc(C(=O)c2ccc(Br)cc2)cc1 [compound 151] | 15.3 | –
Cc1ccc(C(=O)c2ccc(Br)cc2)c(C)c1 [compound 152] | 22.6 | –
Cc1cc(C)c(C(=O)c2ccc(Br)cc2)c(C)c1 [compound 153] | 27.8 | –
CCCc1ccc(C(=O)c2ccccc2I)cc1 [compound 154] | 29 | –
CCCCc1ccc(C(=O)c2ccccc2I)cc1 [compound 155] | 31.8 | –
CCCCCc1ccc(C(=O)c2ccccc2I)cc1 [compound 156] | 43 | –
CCCCCCCCc1ccc(C(=O)c2ccccc2I)cc1 [compound 157] | 37.4 | –
Cc1ccc(C(=O)c2ccccc2I)c(C)c1 [compound 158] | 32.7 | –
Cc1cc(C)c(C(=O)c2ccccc2I)c(C)c1 [compound 159] | 15.9 | –
CCCCc1ccc(C(=O)c2cccc(I)c2)cc1 [compound 160] | 10.8 | –
CCCCCCCCc1ccc(C(=O)c2cccc(I)c2)cc1 [compound 161] | – | 20.9
Cc1ccc(C(=O)c2cccc(I)c2)c(C)c1 [compound 162] | 13 | –
Cc1cc(C)c(C(=O)c2cccc(I)c2)c(C)c1 [compound 163] | 16.4 | –
CCCCCCCCc1ccc(C(=O)c2ccc(I)cc2)cc1 [compound 164] | 29 | –
Cc1ccc(C(=O)c2ccc(I)cc2)c(C)c1 [compound 165] | 19.2 | –
Cc1cc(C)c(C(=O)c2ccc(I)cc2)c(C)c1 [compound 166] | 21.5 | –

From patent US4145444A, “Anti-inflammatory agent of benzoyl derivative” (priority 1977, dated 1979)
